From the NIST ThermoML archive (doi:10.1007/s10765-010-0766-0)
± gives the expanded uncertainty stated by the source.

Assay: wn = mass fraction of the nth substance listed
Settings: Liquid, Pycnometric method, w2 = 0.4981

FC(F)C(F)(F)F [pentafluoroethane] + FCF
Settings	mass density [kg/m3]
357.15 K, 9042 kPa	773.5 ± 1.3
357.15 K, 9048 kPa	773.4 ± 1.3
357.15 K, 16243 kPa	919 ± 1.7
357.15 K, 16254 kPa	918.9 ± 1.5
357.15 K, 16277 kPa	919.1 ± 1.7
358.15 K, 9284 kPa	773.4 ± 1.3
358.15 K, 9290 kPa	773.3 ± 1.3
358.15 K, 16617 kPa	918.9 ± 1.7
358.15 K, 16628 kPa	918.8 ± 1.5
358.15 K, 16652 kPa	919.1 ± 1.7
359.15 K, 9527 kPa	773.3 ± 1.3
359.15 K, 9532 kPa	773.3 ± 1.3
359.15 K, 16990 kPa	918.8 ± 1.6
359.15 K, 17003 kPa	918.7 ± 1.5
359.15 K, 17027 kPa	919 ± 1.6
360.15 K, 9770 kPa	773.3 ± 1.3
360.15 K, 9775 kPa	773.2 ± 1.3
360.15 K, 17365 kPa	918.7 ± 1.7
360.15 K, 17377 kPa	918.7 ± 1.5
360.15 K, 17401 kPa	918.9 ± 1.7
361.15 K, 10013 kPa	773.2 ± 1.3
361.15 K, 10019 kPa	773.1 ± 1.3
361.15 K, 17739 kPa	918.6 ± 2.5
361.15 K, 17752 kPa	918.6 ± 1.5
361.15 K, 17776 kPa	918.8 ± 2.5
362.15 K, 10256 kPa	773.2 ± 1.3
362.15 K, 10262 kPa	773.1 ± 1.3
362.15 K, 18113 kPa	918.5 ± 1.6
362.15 K, 18127 kPa	918.5 ± 1.5
362.15 K, 18151 kPa	918.7 ± 1.6
363.15 K, 10501 kPa	773.1 ± 1.3
363.15 K, 10506 kPa	773 ± 1.3
363.15 K, 18487 kPa	918.4 ± 2
363.15 K, 18501 kPa	918.4 ± 2
363.15 K, 18526 kPa	918.6 ± 2
364.15 K, 10745 kPa	773.1 ± 1.3
364.15 K, 10751 kPa	773 ± 1.3
364.15 K, 18862 kPa	918.4 ± 1.6
364.15 K, 18876 kPa	918.3 ± 1.5
364.15 K, 18899 kPa	918.5 ± 1.6
365.15 K, 10990 kPa	773 ± 1.3
365.15 K, 10996 kPa	772.9 ± 1.3
365.15 K, 19236 kPa	918.3 ± 1.6
365.15 K, 19250 kPa	918.3 ± 1.5
365.15 K, 19274 kPa	918.4 ± 1.8
366.15 K, 11235 kPa	772.9 ± 1.3
366.15 K, 11241 kPa	772.9 ± 1.3
366.15 K, 19610 kPa	918.2 ± 1.9
366.15 K, 19625 kPa	918.2 ± 1.5
366.15 K, 19649 kPa	918.4 ± 1.9
367.15 K, 11480 kPa	772.9 ± 1.3
367.15 K, 11486 kPa	772.8 ± 1.3
367.15 K, 19985 kPa	918.1 ± 1.5
367.15 K, 20000 kPa	918.1 ± 1.5
367.15 K, 20025 kPa	918.3 ± 1.5
368.15 K, 11726 kPa	772.8 ± 1.3
368.15 K, 11732 kPa	772.7 ± 1.3
368.15 K, 20360 kPa	918 ± 1.5
368.15 K, 20375 kPa	918 ± 1.5
368.15 K, 20400 kPa	918.2 ± 1.5
369.15 K, 11972 kPa	772.8 ± 1.3
369.15 K, 11979 kPa	772.7 ± 1.3
369.15 K, 20734 kPa	917.9 ± 1.5
369.15 K, 20750 kPa	917.9 ± 1.5
369.15 K, 20776 kPa	918.1 ± 1.5
370.15 K, 12219 kPa	772.7 ± 1.3
370.15 K, 12225 kPa	772.6 ± 1.3
370.15 K, 21109 kPa	917.8 ± 1.5
370.15 K, 21125 kPa	917.8 ± 1.5
370.15 K, 21150 kPa	918 ± 1.5
371.15 K, 12465 kPa	772.6 ± 1.3
371.15 K, 12472 kPa	772.6 ± 1.3
371.15 K, 21484 kPa	917.7 ± 1.5
371.15 K, 21500 kPa	917.7 ± 1.5
371.15 K, 21525 kPa	917.9 ± 1.5
372.15 K, 12712 kPa	772.6 ± 1.3
372.15 K, 12719 kPa	772.5 ± 1.3
372.15 K, 21859 kPa	917.6 ± 1.5
372.15 K, 21875 kPa	917.6 ± 1.5
372.15 K, 21901 kPa	917.8 ± 1.5
373.15 K, 12959 kPa	772.5 ± 1.3
373.15 K, 12966 kPa	772.5 ± 1.3
373.15 K, 22234 kPa	917.5 ± 1.5
373.15 K, 22250 kPa	917.6 ± 1.5
373.15 K, 22277 kPa	917.8 ± 1.5
374.15 K, 13207 kPa	772.5 ± 1.3
374.15 K, 13213 kPa	772.4 ± 1.3
374.15 K, 22609 kPa	917.5 ± 1.5
374.15 K, 22625 kPa	917.5 ± 1.5
374.15 K, 22654 kPa	917.7 ± 1.5
375.15 K, 13454 kPa	772.4 ± 1.3
375.15 K, 13461 kPa	772.3 ± 1.3
375.15 K, 22984 kPa	917.4 ± 1.5
375.15 K, 23000 kPa	917.4 ± 1.5
375.15 K, 23029 kPa	917.6 ± 1.5
